The values that follow come from ChEMBL document CHEMBL2177034, “Inhibition of hypoxia inducible factor-2 transcription: isolation of active modulators from marine sponges” (J Nat Prod, 2012).

Active and inactive are the calls of the source. The calls are words filed in the database; no cut-off is given here.

Data set [1] has as its target Hypoxia-inducible factor 1-alpha (Homo sapiens) (UniProt Q16665). Kind of data set: Inhibition of HIF1alpha in human SK-RC-28 cells assessed as reduction in VEGFA after 48 hrs by RT-PCR analysis. Type of data set: cell-based.
Data set [2] concerns the target T1, Endothelial PAS domain-containing protein 1 (Homo sapiens, UniProt Q99814). Kind of data set: Inhibition of HIF2alpha in human 786-0 cells assessed as reduction in CCND1 mRNA expression after 48 hrs by RT-PCR analysis. Type of data set: cell-based.
The target in data set [3] is T1, Endothelial PAS domain-containing protein 1. Kind of data set: Inhibition of HIF2alpha in human 786-0 cells expressing truncated HIF1alpha assessed as reduction in luciferase activity after 24 hrs by reporter gene assay. Type of data set: cell-based.
Data set [4] shares this target. Kind of data set: Inhibition of HIF2alpha in human RCC4 cells coexpressing HIF1alpha assessed as reduction in TGFalpha mRNA expression after 48 hrs by RT-PCR analysis. The format is cell-based.
Data set [5] in a line: Downregulation of GLUT1 mRNA expression in human SK-RC-28 cells after 48 hrs by RT-PCR analysis. Type of data set: functional, cell-based.
The target of data set [6] is Hypoxia-inducible factor 1-alpha (Homo sapiens) (UniProt Q16665). Kind of data set: Inhibition of HIF1alpha in human RCC4 cells coexpressing HIF2alpha assessed as decrease in carbonic anhydrase 9 mRNA expression after 48 hrs by RT-PCR analysis. The format is cell-based.
Data set [7] has as its target T2, Hypoxia inducible factors; HIF-1-alpha, HIF-2-alpha (Homo sapiens) (UniProt Q16665+Q99814). Kind of data set: Inhibition of HIF1alpha/2alpha in human RCC4 cells assessed as reduction in VEGFA mRNA expression after 48 hrs by RT-PCR analysis. The format is cell-based.
The target of data set [8] is T1, Endothelial PAS domain-containing protein 1. Kind of data set: Inhibition of HIF2alpha in human 786-0 cells assessed as reduction in VEGFA after 48 hrs by RT-PCR analysis. The format is cell-based.
Data set [9] is described as follows: Downregulation of HIF2alpha mRNA expression in human SK-RC-28 cells after 48 hrs by RT-PCR analysis. Type of data set: functional, cell-based.
Data set [10] can be described thus: Downregulation of TGFalpha mRNA expression in human SK-RC-28 cells after 48 hrs by RT-PCR analysis. Type of data set: functional, cell-based.
For data set [11], the system named is 786-0. Kind of data set: Down regulation of carbonic anhydrase 9 expression in human 786-0 cells after 48 hrs by RT-PCR analysis. Type of data set: functional, cell-based.
The nature of data set [12]: Downregulation of HIF2alpha mRNA expression in human RCC4 cells after 48 hrs by RT-PCR analysis. Type of data set: functional, cell-based.
In data set [13] the test system is 786-0. Kind of data set: Downregulation of HIF1alpha mRNA expression in human 786-0 cells after 48 hrs by RT-PCR analysis. The format is functional, cell-based.
Data set [14] can be described thus: Downregulation of HIF1alpha mRNA expression in human RCC4 cells after 48 hrs by RT-PCR analysis. Type of data set: functional, cell-based.
The target of data set [15] is T1, Endothelial PAS domain-containing protein 1. In words: Inhibition of HIF2alpha in human 786-0 cells assessed as reduction in TGFalpha mRNA expression after 48 hrs by RT-PCR analysis. Type of data set: cell-based.
The test system of data set [16] is 786-0. In words: Downregulation of HIF2alpha mRNA expression in human 786-0 cells after 48 hrs by RT-PCR analysis. The format is functional, cell-based.
The target of data set [17] is Hypoxia-inducible factor 1-alpha (Homo sapiens) (UniProt Q16665). Kind of data set: Inhibition of HIF1alpha in human SK-RC-28 cells assessed as reduction in carbonic anhydrase 9 expression after 48 hrs by RT-PCR analysis. Type of data set: cell-based.
The target in data set [18] is T1, Endothelial PAS domain-containing protein 1. In words: Inhibition of HIF2alpha in human RCC4 cells coexpressing HIF1alpha assessed as reduction in GLUT1 mRNA expression after 48 hrs by RT-PCR analysis. Type of data set: cell-based.
Data set [19] shares this target. In words: Inhibition of HIF2alpha in human 786-0 cells assessed as reduction in GLUT1 mRNA expression after 48 hrs by RT-PCR analysis. The format is cell-based.
Data set [20] in a line: Downregulation of HIF1alpha mRNA expression in human SK-RC-28 cells after 48 hrs by RT-PCR analysis. The format is functional, cell-based.
The target of data set [21] is T1, Endothelial PAS domain-containing protein 1. Kind of data set: Inhibition of HIF2alpha in human RCC4 cells coexpressing HIF1alpha assessed as reduction in CCND1 mRNA expression after 48 hrs by RT-PCR analysis. Type of data set: cell-based.
Data set [22] in a line: Downregulation of CCND1 mRNA expression in human SK-RC-28 cells after 48 hrs by RT-PCR analysis. Type of data set: functional, cell-based.
In data set [23] the test system is 786-0. Kind of data set: Downregulation of HIF2alpha mRNA expression in human 786-0 cells at 20 uM after 48 hrs by RT-PCR analysis. The format is functional, cell-based.
A short description of data set [24]: Downregulation of HIF1alpha mRNA expression in human RCC4 cells at 20 uM after 48 hrs by RT-PCR analysis. Type of data set: functional, cell-based.
For data set [25], the system named is 786-0. In words: Cytotoxicity against human 786-0 cells expressing HIF2alpha after 2 days by XTT assay. The format is functional, cell-based. The note with it: 786-0, 48 h. (Tetrazolium assays rely on reduction of a dye to a coloured formazan, in cell work by metabolically active cells.)
Data set [26] has as its target T1, Endothelial PAS domain-containing protein 1. Kind of data set: Inhibition of HIF2alpha in human 786-0 cells assessed as reduction in TGFalpha mRNA expression at 20 uM after 48 hrs by RT-PCR analysis. The format is cell-based.
A short description of data set [27]: Downregulation of CCND1 mRNA expression in human SK-RC-28 cells at 20 uM after 48 hrs by RT-PCR analysis. Type of data set: functional, cell-based.
Data set [28] concerns the target Hypoxia-inducible factor 1-alpha (Homo sapiens) (UniProt Q16665). Kind of data set: Inhibition of HIF1alpha in human SK-RC-28 cells assessed as reduction in VEGFA expression at 20 uM after 48 hrs by RT-PCR analysis. The format is cell-based.
Data set [29] in a line: Cytotoxicity against human SK-RC-28 cells expressing HIF1alpha after 2 days by XTT assay. Type of data set: functional, cell-based. As to conditions: 48 h.
Data set [30] concerns the target T2, Hypoxia inducible factors; HIF-1-alpha, HIF-2-alpha (Homo sapiens). Kind of data set: Inhibition of HIF1alpha/2alpha in human RCC4 cells assessed as reduction in VEGFA mRNA expression at 20 uM after 48 hrs by RT-PCR analysis. The format is cell-based.
Data set [31] in a line: Cytotoxicity against human RCC4 cells expressing HIF2alpha and HIF1alpha after 2 days by XTT assay. The note with it: RCC4, 48 h. Type of data set: functional, cell-based.
For data set [32], the system named is 786-0. Kind of data set: Inhibition of total protein expression in serum deprived human 786-0 cells at 20 uM after 48 hrs relative to control. Type of data set: cell-based. As to conditions: 786-0, 48 h, 20 µM.
The target in data set [33] is Hypoxia-inducible factor 1-alpha (Homo sapiens) (UniProt Q16665). In words: Inhibition of HIF1alpha in human SK-RC-28 cells assessed as reduction in carbonic anhydrase expression at 20 uM after 48 hrs by RT-PCR analysis. Type of data set: cell-based.
The test system of data set [34] is 786-0. In words: Downregulation of HIF1alpha mRNA expression in human 786-0 cells at 20 uM after 48 hrs by RT-PCR analysis. The format is functional, cell-based.
The nature of data set [35]: Downregulation of TGFalpha mRNA expression in human SK-RC-28 cells at 20 uM after 48 hrs by RT-PCR analysis. Type of data set: functional, cell-based.
Data set [36] is described as follows: Downregulation of HIF2alpha mRNA expression in human RCC4 cells at 20 uM after 48 hrs by RT-PCR analysis. Type of data set: functional, cell-based.
For data set [37], the target named is T1, Endothelial PAS domain-containing protein 1. In words: Inhibition of HIF2alpha in human 786-0 cells assessed as reduction in CCND1 mRNA expression at 20 uM after 48 hrs by RT-PCR analysis. Type of data set: cell-based.
Data set [38] can be described thus: Downregulation of GLUT1 mRNA expression in human SK-RC-28 cells at 20 uM after 48 hrs by RT-PCR analysis. The format is functional, cell-based.
For data set [39], the target named is T1, Endothelial PAS domain-containing protein 1. In words: Inhibition of HIF2alpha in human 786-0 cells assessed as reduction in VEGFA mRNA expression at 20 uM after 48 hrs by RT-PCR analysis. Type of data set: cell-based.
For data set [40], the system named is 786-0. Kind of data set: Inhibition of HIF-mediated VEGFA protein expression in serum deprived human 786-0 cells at 20 uM after 48 hrs relative to control. The format is cell-based.
The target of data set [41] is T1, Endothelial PAS domain-containing protein 1. Kind of data set: Inhibition of HIF2alpha in human 786-0 cells assessed as reduction in GLUT1 mRNA expression at 20 uM after 48 hrs by RT-PCR analysis. Type of data set: cell-based.
Data set [42] shares this target. In words: Inhibition of HIF2alpha in human RCC4 cells coexpressing HIF1alpha assessed as reduction in TGFalpha mRNA expression at 20 uM after 48 hrs by RT-PCR analysis. The format is cell-based.
Data set [43] in a line: Downregulation of HIF1alpha mRNA expression in human SK-RC-28 cells at 20 uM after 48 hrs by RT-PCR analysis. Type of data set: functional, cell-based.
Data set [44] addresses T1, Endothelial PAS domain-containing protein 1. In words: Inhibition of HIF2alpha in human RCC4 cells coexpressing HIF1alpha assessed as reduction in GLUT1 mRNA expression at 20 uM after 48 hrs by RT-PCR analysis. The format is cell-based.
Data set [45] is described as follows: Downregulation of HIF2alpha mRNA expression in human SK-RC-28 cells at 20 uM after 48 hrs by RT-PCR analysis. The format is functional, cell-based.
The target of data set [46] is Hypoxia-inducible factor 1-alpha (Homo sapiens) (UniProt Q16665). Kind of data set: Induction of HIF1alpha in human RCC4 cells assessed as increase in […] 9 expression at 20 uM after 48 hrs by RT-PCR analysis relative to control. The format is cell-based.
Data set [47] addresses T1, Endothelial PAS domain-containing protein 1. In words: Inhibition of HIF2alpha in human RCC4 cells coexpressing HIF1alpha assessed as reduction in CCND1 mRNA expression at 20 uM after 48 hrs by RT-PCR analysis. The format is cell-based.

T1 sequence (Q99814 whole entry, the tested form may be a part): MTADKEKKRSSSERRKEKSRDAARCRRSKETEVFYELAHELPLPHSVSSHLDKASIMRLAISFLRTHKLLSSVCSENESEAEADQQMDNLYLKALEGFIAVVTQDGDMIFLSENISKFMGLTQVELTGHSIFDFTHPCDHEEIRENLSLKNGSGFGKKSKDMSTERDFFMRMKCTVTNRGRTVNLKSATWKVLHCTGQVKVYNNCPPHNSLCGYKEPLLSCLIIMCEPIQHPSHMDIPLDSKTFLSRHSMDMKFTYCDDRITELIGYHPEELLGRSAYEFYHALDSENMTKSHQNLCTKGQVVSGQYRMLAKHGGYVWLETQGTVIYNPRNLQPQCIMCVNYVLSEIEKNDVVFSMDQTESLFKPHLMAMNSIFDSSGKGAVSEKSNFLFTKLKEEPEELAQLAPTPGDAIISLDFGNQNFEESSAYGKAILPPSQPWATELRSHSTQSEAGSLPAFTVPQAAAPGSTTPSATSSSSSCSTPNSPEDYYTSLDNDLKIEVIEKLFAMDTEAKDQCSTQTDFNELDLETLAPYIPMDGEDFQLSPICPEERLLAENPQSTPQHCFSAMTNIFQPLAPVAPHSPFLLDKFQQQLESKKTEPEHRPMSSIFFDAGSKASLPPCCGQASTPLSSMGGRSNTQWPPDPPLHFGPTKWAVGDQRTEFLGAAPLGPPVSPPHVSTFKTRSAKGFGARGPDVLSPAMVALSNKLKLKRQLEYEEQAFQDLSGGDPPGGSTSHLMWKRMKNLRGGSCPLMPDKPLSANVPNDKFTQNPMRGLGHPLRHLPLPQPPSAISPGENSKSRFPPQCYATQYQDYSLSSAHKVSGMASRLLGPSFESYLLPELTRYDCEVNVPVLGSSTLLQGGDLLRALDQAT
Sequence of Hypoxia-inducible factor 1-alpha (Homo sapiens) (Q16665 whole entry, looked up, the tested form may be a part): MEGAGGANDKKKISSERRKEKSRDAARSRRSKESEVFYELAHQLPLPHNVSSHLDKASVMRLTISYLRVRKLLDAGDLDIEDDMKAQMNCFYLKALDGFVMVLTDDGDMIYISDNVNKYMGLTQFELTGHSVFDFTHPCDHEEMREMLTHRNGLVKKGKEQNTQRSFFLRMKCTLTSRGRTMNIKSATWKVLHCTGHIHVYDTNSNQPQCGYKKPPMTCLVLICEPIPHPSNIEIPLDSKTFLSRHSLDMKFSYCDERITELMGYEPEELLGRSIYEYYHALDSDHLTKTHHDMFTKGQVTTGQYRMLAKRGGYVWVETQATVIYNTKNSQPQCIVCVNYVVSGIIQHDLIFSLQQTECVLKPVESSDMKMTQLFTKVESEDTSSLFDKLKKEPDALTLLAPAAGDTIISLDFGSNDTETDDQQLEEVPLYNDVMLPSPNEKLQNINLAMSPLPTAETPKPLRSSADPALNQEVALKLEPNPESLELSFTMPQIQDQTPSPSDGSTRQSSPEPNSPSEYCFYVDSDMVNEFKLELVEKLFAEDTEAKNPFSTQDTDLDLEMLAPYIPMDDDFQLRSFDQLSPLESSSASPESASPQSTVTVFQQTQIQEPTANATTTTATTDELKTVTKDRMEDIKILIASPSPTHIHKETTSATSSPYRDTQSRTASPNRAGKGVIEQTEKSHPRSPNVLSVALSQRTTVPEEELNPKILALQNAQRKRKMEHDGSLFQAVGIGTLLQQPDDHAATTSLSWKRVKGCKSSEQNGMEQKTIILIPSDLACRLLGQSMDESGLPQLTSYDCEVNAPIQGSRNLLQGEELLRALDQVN

What is called EC50 is the midpoint of the concentration-response curve. As for `C/C=C(/C)C(=O)OCc1nccc2c1C(=O)C(O)=C(C)C2=O`, the inhibition result in [1], in [2], in [4], in [6], in [7] and in data set [8] was “inactive” throughout. The inhibition result in data set [15], in data set [17], in [18], in data set [19] and in data set [21] was “inactive” each time. For the same molecule, the concentration giving a half-maximal response (EC50) in [3] was greater than 100 µM. Further, the outcome (in [5]; in data set [9]; in data set [10]; in the data set on 786-0 [11]; in [12]; in the data set on 786-0 [13]) was inactive. Further, the result (in data set [14]; with 786-0 [16]; in [20]; in data set [22]) was inactive.
Consider `CC(=O)OC[C@]12CCCC(C)(C)[C@@H]1CC[C@]1(C)[C@@H]2C[C@H]2OC(=O)[C@H]3[C@H](C(C)=O)[C@@H](O)C[C@@H]1[C@]23C`, for which the EC50 in data set [3] was greater than 100 µM.
Same read-out and setting: next, `CC(=O)O[C@H]1C[C@H]2[C@@](C)(CC[C@H]3C(C)(C)CCC[C@@]32C=O)[C@@H]2CC=C(C(C)=O)[C@H](C=O)[C@@]12C`: 4.2 µM; `COc1cc2ccnc3c2c(c1OC)NC=C3` [AAPTAMINE]: greater than 100 µM.
`CC(=O)O[C@@H]1OC=C2[C@@H](OC(C)=O)C[C@H]3[C@]4(C)CC[C@H]5C(C)(C)CCC[C@]5(C)[C@H]4C[C@@H](O)[C@]3(C)[C@H]21` [HETERONEMIN]: in data set [3], the EC50 worked out at 1.2 µM.
Take `COC1=C(C)C(=O)c2cc(=O)n(C)c(C)c2C1=O` [MIMOSAMYCIN]: the EC50 in data set [3] was greater than 100 µM.
Usually IC50 stands for the concentration that inhibits the measured activity by half. High values mean lower potency, low ones higher potency. For `CC1(C)CCC[C@]2(C)[C@H]3C=C4C=C(O)C(=O)C=C4O[C@@]3(C)CC[C@@H]12` [PUUPEHENONE], the result (in the data set on 786-0 [23]; in data set [24]; in the data set with 786-0 [34]; in data set [36]) was Active. Moreover, the IC50 in the data set on 786-0 [25] came to 17.7 µM; in data set [29], 15.5 µM; in data set [31], 18 µM. Further, the inhibition result (in data set [26]; in data set [30]; in data set [37]; in [39]; in the data set on 786-0 [40]; in data set [41]) was “Active” in each case. Besides, the inhibition result in data set [42], in [44] and in [47] was “Active” each time. The outcome in [27], in data set [35], in data set [38], in data set [43] and in data set [45] was inactive. Besides, the EC50 in data set [3] was determined as 3.3 µM. Besides, the inhibition entry in data set [28] and in data set [33] was “inactive” throughout. The Activity entry with 786-0 [32] is “Toxic”. Moreover, the fold change (FC) in data set [46] was determined as 4.
Consider `C[C@@]12CCCc3coc(c31)C(=O)c1cc3c(cc12)C(=O)C=CC3=O` [XESTOQUINONE], for which the EC50 in [3] was greater than 100 µM.
